According to patent US20100111888A1, “Organic Compounds and Compositions Having the Ability to Modulate Fragrance Compositions” (GIVAUDAN SA, priority 2007, published 2010):

Biological target: T1, CYP2A13 (Homo sapiens, UniProt Q16696)
T1 construct: made in house; host or cells: Sf9 insect cells, recombinant baculovirus
T1 sequence (Q16696 1-494): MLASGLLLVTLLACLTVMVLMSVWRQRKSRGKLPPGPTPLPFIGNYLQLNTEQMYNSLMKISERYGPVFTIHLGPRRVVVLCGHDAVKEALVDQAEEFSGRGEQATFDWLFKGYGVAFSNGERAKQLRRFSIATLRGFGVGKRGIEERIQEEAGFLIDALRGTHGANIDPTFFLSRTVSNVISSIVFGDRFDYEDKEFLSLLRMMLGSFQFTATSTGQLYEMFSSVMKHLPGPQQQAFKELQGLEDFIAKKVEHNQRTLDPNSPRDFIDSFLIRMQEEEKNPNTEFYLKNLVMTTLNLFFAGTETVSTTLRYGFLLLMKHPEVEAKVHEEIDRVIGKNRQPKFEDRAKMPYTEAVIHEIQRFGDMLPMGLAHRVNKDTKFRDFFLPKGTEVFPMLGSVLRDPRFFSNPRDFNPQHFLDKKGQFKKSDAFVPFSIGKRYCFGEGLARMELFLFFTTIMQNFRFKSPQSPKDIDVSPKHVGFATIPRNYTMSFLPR
Test: Evaluation of test compounds as inhibitors of CYP2A13 (coumarin to Umbelliferone, fluorescence)
Assay type: biochemical
Details: substrate coumarin 0.006 mM; microsomes with 7 pmoles CYP2A13; 60 min at 37° C.; read-out: CYP2A13 inhibitor activity IC50
Source text: P450 reductase is commercially available (BD Biosciences Gentest, USA).
Microsomes were used which contained 7 pmoles CYP2A13.

Row | SMILES | IC50
1 | CCCCC/C(=C\C(OC)OC)C(C)=O [Compound ID 11, (E)-3-(2,2-dimethoxyethylidene)octan-2-one] | 1600 nM
2 | CCC/C(=C\c1ccc(OC)cc1)C(C)=O [Compound ID 38, (E)-3-(4-methoxybenzylidene)hexan-2-one] | 2000 nM
3 | CCCCC/C(=C\c1ccc(C#N)cc1)C(C)=O [Compound ID 7, (E)-4-(2-acetylhept-1-enyl)benzonitrile] | 2000 nM
4 | CCCCC/C(=C\C1CC1)C(=O)OC [Compound ID 46, (E)-methyl 2-(cyclopropylmethylene)heptanoate] | 2300 nM
5 | CCCCC/C(=C\C1CC1)C(=O)c1ccccc1 [Compound ID 52, (E)-2-(cyclopropylmethylene)-1-phenylheptan-1-one] | 6600 nM
6 | CCCC/C(=C\c1ccc(OC)cc1)C(C)=O [Compound ID 37, (E)-3-(4-methoxybenzylidene)heptan-2-one] | 1400 nM
7 | CCCCCC1(C(=O)OC)CCCC1 [Compound ID 14, methyl 1-pentylcyclopentanecarboxylate] | 2100 nM
8 | CCCCC/C(=C\C(C)(C)C)C(=O)OC [Compound ID 53, (E)-methyl 2-(2,2-dimethylpropylidene)heptanoate] | 1900 nM
9 | CCCCCC(CC1CC1)C(C)=O (stereo not shown) [Compound ID 50, 3-(cyclopropylmethyl)octan-2-one] | 1300 nM
10 | CCC/C(=C\c1ccccc1)C(C)=O [Compound ID 32, (E)-3-benzylidenehexan-2-one] | 1000 nM
11 | CCCCC/C(C(C)=O)=C(/C)c1ccccc1 [Compound ID 51, (E)-3-(1-phenylethylidene)octan-2-one] | 2500 nM
12 | CCCCC/C(=C\c1ccc2c(c1)OCO2)C(C)=O [Compound ID 39, (E)-3-(benzo[d][1,3]dioxol-5-ylmethylene)octan-2-one] | 2000 nM
13 | CCCCCC/C(=C\c1ccccc1)C(C)=O [Compound ID 6, (E)-3-benzylidenenonan-2-one] | 3000 nM
14 | CCCCCC(CC1CC1)C(=O)OC (stereo not shown) [Compound ID 48, methyl 2-(cyclopropylmethyl)heptanoate] | 8700 nM
15 | CCCCC/C(=C/c1cc(F)cc(F)c1)C(C)=O [Compound ID 26, (Z)-3-(3,5-difluorobenzylidene)octan-2-one] | 14300 nM
16 | CCCC/C(=C\C1CCOC1)C(C)=O (stereo not shown) [Compound ID 10, (E)-3-((tetrahydrofuran-3-yl)methylene)heptan-2-one] | 15500 nM
17 | CCCCC/C(=C\C(C)(C)C)C(=O)O [Compound ID 54, (E)-2-(2,2-dimethylpropylidene)heptanoic acid] | 2600 nM
18 | CCCCC/C(=C\CC1(C)OCCO1)C(C)=O [Compound ID 12, (E)-3-(2-(2-methyl-1,3-dioxolan-2-yl)ethylidene)octan-2-one] | 3200 nM
19 | CCCCCC/C(=C\C1CC1)C(=O)/C=C/C1CC1 [Compound ID 13, (1E,4E)-1-cyclopropyl-4-(cyclopropylmethylene)dec-1-en-3-one] | 9700 nM
20 | CCCCC/C(=C/c1ccc(C(=O)OC)cc1)C(C)=O [Compound ID 41, (Z)-methyl 4-(2-acetylhept-1-enyl)benzoate] | 47200 nM
21 | CCCCC/C(=C\c1cccs1)C(C)=O [Compound ID 9, (E)-3-(thiophen-2-ylmethylene)octan-2-one] | 5300 nM
22 | CCCCC/C(=C\c1ccc2ccccc2c1)C(C)=O [Compound ID 8, (E)-3-(naphthalen-2-ylmethylene)octan-2-one] | 16300 nM
23 | CCCCC/C(=C\c1ccc(C(=O)OC)cc1)C(C)=O [Compound ID 40, (E)-methyl 4-(2-acetylhept-1-enyl)benzoate] | 1100 nM
24 | CCCCCC(Cc1ccccc1)C(=O)OC (stereo not shown) [Compound ID 49, methyl 2-benzylheptanoate] | 4400 nM

Now those with a lower IC50, led by results:

Row | IC50 | SMILES
25 | 500 nM | CCCCC/C(=C\c1cccc(OC)c1)C(C)=O [Compound ID 35, (E)-3-(3-methoxybenzylidene)octan-2-one]
26 | 400 nM | CCCCC/C(=C\c1ccc(C)cc1)C(C)=O [Compound ID 30, (E)-3-(4-methylbenzylidene)octan-2-one]
27 | 600 nM | CCCCC/C(=C\c1cc(F)cc(F)c1)C(C)=O [Compound ID 25, (E)-3-(3,5-difluorobenzylidene)octan-2-one]
28 | 100 nM | CCCCC/C(=C\c1cccnc1)C(C)=O [Compound ID 44, (E)-3-(pyridin-3-ylmethylene)octan-2-one]
29 | 500 nM | CCCCC/C(=C\c1ccncc1)C(C)=O [Compound ID 45, (E)-3-(pyridin-4-ylmethylene)octan-2-one]
30 | 200 nM | CCCCC/C(=C\c1c(F)cccc1F)C(C)=O [Compound ID 23, (E)-3-(2,6-difluorobenzylidene)octan-2-one]
31 | 400 nM | CCCCC/C(=C\c1ccc(OC)cc1)C(C)=O [Compound ID 36, (E)-3-(4-methoxybenzylidene)octan-2-one]
32 | 300 nM | CCCCC/C(=C\C(C)(C)C)C(C)=O [Compound ID 55, (E)-3-(2,2-dimethylpropylidene)octan-2-one]
33 | 400 nM | CCCCC/C(=C\c1ccc(F)cc1)C(C)=O [Compound ID 22, (E)-3-(4-fluorobenzylidene)octan-2-one]
34 | 300 nM | CCCCC/C(=C\c1ccccc1C)C(C)=O [Compound ID 28, (E)-3-(2-methylbenzylidene)octan-2-one]
35 | 200 nM | CCCCC/C(=C\c1ccccc1C(F)(F)F)C(C)=O [Compound ID 31, (E)-3-(2-(trifluoromethyl)benzylidene)octan-2-one]
36 | 700 nM | CCCCCC1(C(C)=O)CCCC1 [Compound ID 15, 1-(1-pentylcyclopentyl)ethanone]
37 | 300 nM | CCCCC/C(=C\C1CCC1)C(C)=O [Compound ID 19, (E)-3-(cyclobutylmethylene)octan-2-one]
38 | 400 nM | CCCCC/C(=C\c1ccccc1OC)C(C)=O [Compound ID 34, (E)-3-(2-methoxybenzylidene)octan-2-one]
39 | 500 nM | CCCCC/C(=C\c1ccccc1)C(=O)OC [Compound ID 47, (E)-methyl 2-benzylideneheptanoate]
40 | 200 nM | CCCCC/C(=C\C(C)C)C(C)=O [Compound ID 56, (E)-3-(2-methylpropylidene)octan-2-one]
41 | 100 nM | CCCCC/C(=C\c1ccccn1)C(C)=O [Compound ID 43, (E)-3-(pyridin-2-ylmethylene)octan-2-one]
42 | 500 nM | CCCCC/C(=C\c1ccccc1)C(=O)CC [Compound ID 58, (E)-4-benzylidenenonan-3-one]
43 | 200 nM | CCCCC/C(=C\c1ccc(F)cc1F)C(C)=O [Compound ID 24, (E)-3-(2,4-difluorobenzylidene)octan-2-one]
44 | 300 nM | CCCCC/C(=C\c1cccc(F)c1)C(C)=O [Compound ID 21, (E)-3-(3-fluorobenzylidene)octan-2-one]
45 | 500 nM | CCCCC/C(=C\C1CCCCC1)C(C)=O [Compound ID 16, (E)-3-(cyclohexylmethylene)octan-2-one]
46 | 300 nM | CCCCC/C(=C\C1CC1)C(=O)CC [Compound ID 57, (E)-4-(cyclopropylmethylene)nonan-3-one]
47 | 300 nM | CCCCC/C(=C\c1ccccc1F)C(C)=O [Compound ID 20, (E)-3-(2-fluorobenzylidene)octan-2-one]
48 | 500 nM | CCCCC/C(=C\C1CCCC1)C(C)=O [Compound ID 18, (E)-3-(cyclopentylmethylene)octan-2-one]
49 | 600 nM | CCCCC/C(=C\C1CC=CCC1)C(C)=O (stereo not shown) [Compound ID 17, (E)-3-(cyclohex-3-enylmethylene)octan-2-one]
50 | 400 nM | CCCCC/C(=C\c1cccc(C)c1)C(C)=O [Compound ID 29, (E)-3-(3-methylbenzylidene)octan-2-one]
51 | 700 nM | CCCCC/C(=C\c1c(F)c(F)c(F)c(F)c1F)C(C)=O [Compound ID 27, (E)-3-(perfluorobenzylidene)octan-2-one]
52 | 600 nM | CCCC/C(=C\c1ccccc1)C(C)=O [Compound ID 33, (E)-3-benzylideneheptan-2-one]
